For this assay, the target named is T1, α4β7 integrin (Homo sapiens, UniProt P13612+P26010).
T1 construct: a cell line RPMI-8866, which is known to express α4β7 integrin; endogenous in cells; host or cells: RPMI-8866 (human B cell line)
T1 sequence (P13612 34-1032): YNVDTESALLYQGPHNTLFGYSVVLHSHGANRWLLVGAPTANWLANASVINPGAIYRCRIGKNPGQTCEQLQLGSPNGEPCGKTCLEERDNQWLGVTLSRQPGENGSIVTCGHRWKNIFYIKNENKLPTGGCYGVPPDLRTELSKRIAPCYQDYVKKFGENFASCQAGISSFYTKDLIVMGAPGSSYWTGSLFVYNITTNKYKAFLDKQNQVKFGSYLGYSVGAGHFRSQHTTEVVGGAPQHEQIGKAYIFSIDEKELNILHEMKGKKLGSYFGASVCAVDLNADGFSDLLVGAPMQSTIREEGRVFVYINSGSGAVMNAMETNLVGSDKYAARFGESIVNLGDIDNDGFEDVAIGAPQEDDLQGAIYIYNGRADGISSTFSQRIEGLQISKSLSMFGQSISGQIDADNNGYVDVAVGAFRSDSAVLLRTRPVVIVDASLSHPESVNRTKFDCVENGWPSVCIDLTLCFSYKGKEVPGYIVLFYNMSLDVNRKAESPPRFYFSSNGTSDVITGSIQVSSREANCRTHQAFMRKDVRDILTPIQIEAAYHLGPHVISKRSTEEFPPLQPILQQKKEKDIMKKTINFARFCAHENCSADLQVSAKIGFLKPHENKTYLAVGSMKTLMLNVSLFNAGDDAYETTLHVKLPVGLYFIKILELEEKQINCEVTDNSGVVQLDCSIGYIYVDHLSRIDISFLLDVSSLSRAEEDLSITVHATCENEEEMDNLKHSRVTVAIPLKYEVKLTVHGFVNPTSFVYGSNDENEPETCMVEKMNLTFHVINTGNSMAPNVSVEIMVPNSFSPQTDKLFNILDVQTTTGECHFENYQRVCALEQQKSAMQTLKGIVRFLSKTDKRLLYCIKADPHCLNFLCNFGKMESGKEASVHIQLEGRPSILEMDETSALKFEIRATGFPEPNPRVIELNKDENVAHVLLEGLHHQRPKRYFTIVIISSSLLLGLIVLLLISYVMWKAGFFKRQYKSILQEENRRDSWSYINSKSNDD
T1 sequence (P26010 20-798): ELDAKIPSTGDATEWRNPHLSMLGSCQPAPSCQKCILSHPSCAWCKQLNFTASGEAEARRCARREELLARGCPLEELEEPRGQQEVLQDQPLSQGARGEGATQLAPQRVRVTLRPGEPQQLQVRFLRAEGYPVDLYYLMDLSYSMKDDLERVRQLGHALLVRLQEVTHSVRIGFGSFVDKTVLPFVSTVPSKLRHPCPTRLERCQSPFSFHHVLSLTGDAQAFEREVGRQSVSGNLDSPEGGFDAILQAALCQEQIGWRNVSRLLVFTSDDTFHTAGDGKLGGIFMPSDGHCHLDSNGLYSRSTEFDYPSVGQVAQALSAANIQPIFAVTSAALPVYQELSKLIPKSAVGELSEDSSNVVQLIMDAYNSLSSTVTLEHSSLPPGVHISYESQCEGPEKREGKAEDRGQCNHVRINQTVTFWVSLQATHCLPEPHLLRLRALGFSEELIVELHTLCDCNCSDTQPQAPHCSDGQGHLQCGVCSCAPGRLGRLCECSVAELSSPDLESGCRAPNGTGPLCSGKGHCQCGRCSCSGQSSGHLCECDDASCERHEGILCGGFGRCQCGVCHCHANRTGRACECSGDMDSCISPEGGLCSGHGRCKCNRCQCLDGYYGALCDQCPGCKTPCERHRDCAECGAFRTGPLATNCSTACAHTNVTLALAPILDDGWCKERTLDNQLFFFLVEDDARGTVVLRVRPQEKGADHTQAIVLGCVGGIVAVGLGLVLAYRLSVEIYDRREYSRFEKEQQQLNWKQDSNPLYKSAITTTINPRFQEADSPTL
Kind of assay: MAdCAM-1/α4β7 integrin binding inhibitory activity evaluation test (RPMI-8866 cells binding to MAdCAM-1/Fc). The format is cell-based. Particulars: recombinant mouse MAdCAM-1/Fc, no serum. As to the method: (2) MAdCAM-1/α4β7 Integrin Binding Inhibitory Activity Evaluation Test
Each test substance was measured in terms of an ability to inhibit the MAdCAM-1 binding of a human B cell line, namely, a cell line RPMI-8866, which is known to express α4β7 integrin.
A solution of recombinant mouse MAdCAM-1/Fc (R&D Systems, Inc.) (0.75 μg/mL) diluted with a buffer A (carbonate buffer, pH 9.6) was added in an amount of 50 μL/well to a 96-well microtiter plate, followed by incubation at 4° C. overnight. After the plate was washed with PBS once, 150 μL/well of Block Ace (Snow Brand Milk Products Co., Ltd.) was added, followed by incubation at room temperature for 2 hours. After removal, the plate was washed with PBS once.
Then, 100 μL of the RPMI-8866 cells (2×10^6 cells/mL) and 100 μL of the test substance at each of various concentrations diluted with a binding buffer (DMEM containing 40 mM HEPES, 0.2% BSA, and 4 mM MnCl2) were added on the plate coated with the MAdCAM-1/Fc (5×10^5 cells/well), followed by incubation at 30° C. for 15 to 60 minutes. After the cells were bound to the wells, the plate was washed with PBS to remove unbound cells. A buffer C (PBS containing 1.5% Triton X-100) in an amount 50 μL/well was added to the plate to lyse the bound RPMI-8866 cells. After 30 μL of a substrate buffer (Promega, CytoTox 96 Non-Radioactive Cytotoxicity Assay) was added to 30 μL of the cell lysate, a reaction was allowed to proceed at room temperature in the dark for 30 minutes. After 30 μL of a stop solution (Promega, CytoTox 96 Non-Radioactive Cytotoxicity Assay) was added to each, and then an absorbance at 490 nm was measured using a plate reader. The absorbance obtained here represents a detection result of an activity of lactate dehydrogenase (LDH) eluted in the supernatant of each well, that is, the absorbance is proportional to the number of RPMI-8866 cells bound to the MAdCAM-1 and thus remaining on the plate. The test was performed in duplicate. Provided that the absorbance of the well containing no test substance was 100%, a cell binding rate with the test substance at each of the various concentrations was figured out, and a concentration IC50 which brought about 50% binding inhibition was calculated.

From patent US10562898B2, “Substituted benzenesulfonamides as inhibitors of alpha-4 beta-7 integrin activity” (EA PHARMA CO., LTD., priority 2016, dated 2020) come the findings set out here.

Broadly, the IC50 is the concentration needed to halve the response being measured. Regarding `Cn1c2c(c(=O)n(-c3ccc(C[C@H](NC(=O)c4cc(F)c(NS(=O)(=O)c5ccc(NC(=O)C(C)(C)C)cc5)cc4F)C(=O)O)cc3)c1=O)CCOC2` [Compound A27], the IC50 amounted to 360 pM. Consider `Cc1c(C)n(C)c(=O)n(-c2ccc(C[C@H](NC(=O)c3cc(F)c(NS(=O)(=O)c4ccc(NC(=O)C(C)(C)C)cc4)cc3F)C(=O)O)cn2)c1=O` [Compound A28], for which the IC50 came to 560 pM. The value for `Cn1c(=O)n(-c2ccc(C[C@H](NC(=O)c3cc(F)c(NS(=O)(=O)c4ccc(NC(=O)C5(c6ccccc6)CC5)cc4)cc3F)C(=O)O)cn2)c(=O)c2ccncc21` [Compound A29] was 950 pM; that for `Cc1c(C)n(C)c(=O)n(-c2ccc(C[C@H](NC(=O)c3cc(F)c(NS(=O)(=O)c4ccc(NC(=O)C5(c6ccccc6)CC5)cc4)cc3F)C(=O)O)cc2)c1=O` [Compound A30] was 570 pM; that for `Cn1c(=O)n(-c2ccc(C[C@H](NC(=O)c3cc(F)c(NS(=O)(=O)c4ccc(NC(=O)C(C)(C)C)cn4)cc3F)C(=O)O)cn2)c(=O)c2ccncc21` [Compound A31] was 710 pM.

For the compound `Cc1c(C)n(C)c(=O)n(-c2ccc(C[C@H](NC(=O)c3cc(F)c(NS(=O)(=O)c4ccc(NC(=O)C(C)(C)C)cn4)cc3F)C(=O)O)cn2)c1=O` [Compound A32], the IC50 worked out at 620 pM.

With `Cn1c2c(c(=O)n(-c3ccc(C[C@H](NC(=O)c4cc(F)c(NS(=O)(=O)c5ccc(NC(=O)C(C)(C)C)cc5)cc4F)C(=O)O)cc3)c1=O)COCC2` [Compound A33], the IC50 turned out to be 450 pM.

On to `Cc1c(C)n(C)c(=O)n(-c2ccc(C[C@H](NC(=O)c3cc(F)c(NS(=O)(=O)c4ccc(-n5ccc(C6CCOCC6)cc5=O)cc4)cc3F)C(=O)O)cc2)c1=O` [Compound A34], for which the IC50 is 3400 pM. For the compound `Cc1c(C)n(C)c(=O)n(-c2ccc(C[C@H](NC(=O)c3cc(F)c(NS(=O)(=O)c4ccc(N(C)C(=O)C(C)(C)C)cc4)cc3F)C(=O)O)cc2)c1=O` [Compound A35], the IC50 amounted to 9800 pM. With `COc1cc2c(=O)n(-c3ccc(C[C@H](NC(=O)c4cc(F)c(NS(=O)(=O)c5ccc(NC(=O)C(C)(C)C)cc5)cc4F)C(=O)O)cc3)c(=O)n(C)c2cn1` [Compound A36], the IC50 was 940 pM. For `Cc1cn(C)c(=O)n(-c2ccc(C[C@H](NC(=O)c3cc(F)c(NS(=O)(=O)c4ccc(NC(=O)C(C)(C)C)cc4)cc3F)C(=O)O)cc2)c1=O` [Compound A37], the IC50 worked out at 1100 pM.

With `CN1C(=O)N(c2ccc(S(=O)(=O)Nc3cc(F)c(C(=O)N[C@@H](Cc4ccc(-n5c(=O)c6ccncc6n(C)c5=O)nc4)C(=O)O)cc3F)cc2)C(=O)C1(C)C` [Compound A38], the IC50 came out at 5200 pM. The value for `Cn1c2c(c(=O)n(-c3ccc(C[C@H](NC(=O)c4cc(F)c(NS(=O)(=O)c5ccc(NC(=O)C(C)(C)C)cc5)cc4F)C(=O)O)cn3)c1=O)CCOC2` [Compound A40] was 740 pM; that for `CN1CCc2c(n(C)c(=O)n(-c3ccc(C[C@H](NC(=O)c4cc(F)c(NS(=O)(=O)c5ccc(NC(=O)C(C)(C)C)cc5)cc4F)C(=O)O)cc3)c2=O)C1` [Compound A41] was 290 pM. The value for `Cn1ccc(=O)n(-c2ccc(C[C@H](NC(=O)c3cc(F)c(NS(=O)(=O)c4ccc(NC(=O)C(C)(C)C)cc4)cc3F)C(=O)O)cc2)c1=O` [Compound A42] was 770 pM; that for `Cn1cnc2c1c(=O)n(-c1ccc(C[C@H](NC(=O)c3cc(F)c(NS(=O)(=O)c4ccc(NC(=O)C(C)(C)C)cc4)cc3F)C(=O)O)cc1)c(=O)n2C` [Compound A43] was 420 pM; that for `Cn1c2c(c(=O)n(-c3ccc(C[C@H](NC(=O)c4cc(F)c(NS(=O)(=O)c5ccc(NC(=O)C(C)(C)C)cc5)cc4F)C(=O)O)cn3)c1=O)COCC2` [Compound A44] was 480 pM. The value for `Cc1cc(=O)n(-c2ccc(C[C@H](NC(=O)c3cc(F)c(NS(=O)(=O)c4ccc(NC(=O)C(C)(C)C)cc4)cc3F)C(=O)O)cn2)c(=O)n1C` [Compound A45] was 1600 pM; that for `Cc1cc(=O)n(-c2ccc(C[C@H](NC(=O)c3cc(F)c(NS(=O)(=O)c4ccc(NC(=O)C(C)(C)C)cc4)cc3F)C(=O)O)cc2)c(=O)n1C` [Compound A46] was 760 pM. With `Cn1c2c(c(=O)n(-c3ccc(C[C@H](NC(=O)c4cc(F)c(NS(=O)(=O)c5ccc(NC(=O)C(C)(C)C)cc5)cc4F)C(=O)O)nc3)c1=O)CCCC2` [Compound A47], the IC50 is 740 pM.

Regarding `Cc1c(C)n(C(C)C)c(=O)n(-c2ccc(C[C@H](NC(=O)c3cc(F)c(NS(=O)(=O)c4ccc(NC(=O)C(C)(C)C)cc4)cc3F)C(=O)O)cc2)c1=O` [Compound A48], the IC50 was determined as 2000 pM. Under `Cc1c(C)n(C)c(=O)n(-c2ccc(C[C@H](NC(=O)c3cc(F)c(NS(=O)(=O)c4cccc(NC(=O)C(C)(C)C)c4)cc3F)C(=O)O)cc2)c1=O` [Compound A49] stands 2900 pM. Regarding `Cc1c(C)n(C)c(=O)n(-c2ccc(C[C@H](NC(=O)c3cc(F)c(NS(=O)(=O)c4cccc(NC(=O)C(C)(C)C)c4)cc3F)C(=O)O)cn2)c1=O` [Compound A50], the IC50 is 6400 pM. Take `Cc1c(CO)c(=O)n(-c2ccc(C[C@H](NC(=O)c3cc(F)c(NS(=O)(=O)c4ccc(NC(=O)C(C)(C)C)cc4)cc3F)C(=O)O)cc2)c(=O)n1C` [Compound A51]: the concentration for half-maximal inhibition (IC50) stood at 3100 pM.

For `Cn1c2c(c(=O)n(-c3ccc(C[C@H](NC(=O)c4cc(F)c(NS(=O)(=O)c5ccc(NC(=O)C(C)(C)C)cc5)cc4F)C(=O)O)cn3)c1=O)CCCC2` [Compound A52], the IC50 came out at 700 pM. `Cn1ccc(=O)n(-c2ccc(C[C@H](NC(=O)c3cc(F)c(NS(=O)(=O)c4ccc(NC(=O)C(C)(C)C)cc4)cc3F)C(=O)O)cn2)c1=O` [Compound A53]: the IC50 came out at 2000 pM. Under `Cc1cn(C)c(=O)n(-c2ccc(C[C@H](NC(=O)c3cc(F)c(NS(=O)(=O)c4ccc(NC(=O)C(C)(C)C)cc4)cc3F)C(=O)O)cn2)c1=O` [Compound A54] stands 1600 pM.
